Measurements taken from the NIST ThermoML archive (doi:10.1021/je3005479).

Assays:
[1] = refractive index (Na D-line) (dimensionless); conditions: 83.07 kPa, Liquid, Standard Abbe refractometry
[2] = Liquid; for speed of sound / kinematic viscosity: 83.07 kPa; for speed of sound: Pulse-echo method; for mass density: 87.07 kPa, Vibrating tube method; for kinematic viscosity: Capillary tube (Ostwald / Ubbelohde) method

CC(C)C1CC(C(C)C)CC(C(C)C)C1 (stereo not drawn) [1,3,5-triisopropylcyclohexane]
Conditions	kinematic viscosity, [2] [m2/s]	mass density, [2] [kg/m3]	refractive index, [1]	speed of sound, [2] [m/s]
278.15 K	–	837.78	–	1405.7
283.15 K	–	834.14	–	1385
288.15 K	–	830.52	–	1364.8
293.15 K	7.66e-06	826.89	1.4571	1344.8
298.15 K	6.27e-06	823.27	1.4547	1325
303.15 K	5.22e-06	819.64	1.4525	1305.5
308.15 K	4.43e-06	816.02	–	1286.3
313.15 K	3.81e-06	812.39	–	1267.3
318.15 K	3.32e-06	808.76	–	1248.6
323.15 K	2.9e-06	805.12	–	1230
328.15 K	2.58e-06	801.49	–	1211.7
333.15 K	2.32e-06	797.85	–	1193.6
338.15 K	2.09e-06	794.21	–	1175.6
343.15 K	1.9e-06	790.57	–	1158
348.15 K	1.74e-06	–	–	–
353.15 K	1.6e-06	–	–	–
358.15 K	1.48e-06	–	–	–
363.15 K	1.37e-06	–	–	–
368.15 K	1.28e-06	–	–	–
373.15 K	1.19e-06	–	–	–
